Reference: paper PMC3088499 (Journal of medicinal chemistry, 2008)
Entries after “also recorded” stand apart in the source; their conditions may differ. Where a name gives a salt, the structure may show the parent alone. Read-outs that look alike come from different tables or passages of the source.

Key:
[1] = molecular target: T1, 5-HT2A receptor F340^6.52L mutant (Rattus norvegicus, UniProt P14842, F340L); assay: [3H]ketanserin binding at F340L mutant 5-HT2A receptor; conditions: F340L vs wild type 5-HT2A
NET = NET (Homo sapiens, UniProt P23975); assay: [3H]nisoxitine binding, NET
[2] = molecular target: T1, 5-HT2A receptor F340^6.52L mutant; conditions: F340L vs wild type 5-HT2A, fold decrease; ref [41]; cited from earlier work
5-HT2A S159^3.36C mutant = conditions: ref [45]; cited from earlier work
5-HT2A F340^6.52L mutant = conditions: cited from earlier work
5-HT2A S159^3.36A mutant = conditions: ref [45]; cited from earlier work
5-HT2A D172^3.49N mutant = conditions: ref [105]; cited from earlier work
5-HT2A F125^2.55L mutant = conditions: cited from earlier work
5-HT2A F125^2.55S mutant = conditions: ref [107]; cited from earlier work
5-HT2A M132^2.62L mutant = conditions: ref [107]; cited from earlier work
5-HT2A T134^2.64A mutant = conditions: ref [107]; cited from earlier work
5-HT2A W200^4.50A mutant = conditions: ref [44]; cited from earlier work
5-HT2A W367^7.40L mutant = conditions: ref [44]; cited from earlier work
5-HT2A sites = conditions: read-out: Ki, 5-HT2A receptor affinity; [3H]Ketanserin-labeled 5-HT2A sites; ref [13]; cited from earlier work

T1 sequence (P14842 whole entry F340L): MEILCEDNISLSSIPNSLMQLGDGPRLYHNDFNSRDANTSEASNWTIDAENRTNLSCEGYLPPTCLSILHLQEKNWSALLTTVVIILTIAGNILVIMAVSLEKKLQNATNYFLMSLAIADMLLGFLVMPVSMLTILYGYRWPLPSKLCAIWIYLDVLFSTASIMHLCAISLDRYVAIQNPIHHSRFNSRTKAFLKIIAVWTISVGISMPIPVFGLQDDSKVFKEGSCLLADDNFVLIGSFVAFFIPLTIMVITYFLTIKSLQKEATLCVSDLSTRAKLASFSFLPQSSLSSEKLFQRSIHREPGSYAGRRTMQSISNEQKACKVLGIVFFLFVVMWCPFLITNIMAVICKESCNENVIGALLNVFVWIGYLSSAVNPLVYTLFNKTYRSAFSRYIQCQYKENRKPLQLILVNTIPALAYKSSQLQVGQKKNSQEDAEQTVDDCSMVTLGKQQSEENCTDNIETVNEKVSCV
Sequence of NET (P23975 whole entry): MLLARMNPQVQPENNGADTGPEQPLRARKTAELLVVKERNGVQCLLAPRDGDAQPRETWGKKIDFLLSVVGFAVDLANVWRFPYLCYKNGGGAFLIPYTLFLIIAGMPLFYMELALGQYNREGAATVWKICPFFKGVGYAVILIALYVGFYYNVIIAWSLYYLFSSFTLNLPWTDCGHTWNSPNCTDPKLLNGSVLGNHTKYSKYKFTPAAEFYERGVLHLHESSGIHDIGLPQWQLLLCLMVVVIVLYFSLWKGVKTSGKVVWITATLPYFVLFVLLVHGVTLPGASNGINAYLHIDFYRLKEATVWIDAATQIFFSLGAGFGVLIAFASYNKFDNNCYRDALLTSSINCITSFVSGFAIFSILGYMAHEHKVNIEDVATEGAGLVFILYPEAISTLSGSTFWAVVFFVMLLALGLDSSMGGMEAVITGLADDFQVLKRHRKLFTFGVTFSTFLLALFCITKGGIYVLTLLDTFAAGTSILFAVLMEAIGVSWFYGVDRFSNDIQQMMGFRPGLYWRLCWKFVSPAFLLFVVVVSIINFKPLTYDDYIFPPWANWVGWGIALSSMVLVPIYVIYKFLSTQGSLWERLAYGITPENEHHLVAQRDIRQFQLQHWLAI

NCC1c2ccccc2Cc2ccccc21 [Compound 1a, 9-aminomethyl-9,10-dihydroanthracene]
decrease in affinity at F340L mutant compared to wild type receptor [1]: 3 fold

CCCCCCc1ccc2c(c1)Cc1ccccc1C2CN (stereo not shown) [Compound 1d, 3-n-Hexyl-9-aminomethyl-9,10-dihydroanthracene fumarate]
selectivity for the 5-HT2A receptor over the norepinephrine transporter (NET): 120 fold

O=C(c1ccc(F)cc1)C1CCN(CCn2c(=O)[nH]c3ccccc3c2=O)CC1 [ketanserin]
effect of F340L mutation on affinity [2]: little effect
Effect on ketanserin binding affinity (5-HT2A S159^3.36C mutant): no effect
Effect on ketanserin binding affinity (5-HT2A F340^6.52L mutant; ref [104]): no effect
Effect on ketanserin binding affinity (5-HT2A F340^6.52L mutant; ref [107]): no effect
Effect on ketanserin binding affinity (5-HT2A S159^3.36A mutant): no effect
Effect on ketanserin binding affinity (5-HT2A D172^3.49N mutant): no effect
Effect on ketanserin binding affinity (5-HT2A F125^2.55L mutant; ref [44]): no effect
Effect on ketanserin binding affinity (5-HT2A F125^2.55L mutant; ref [104]): no effect
Effect on ketanserin binding affinity (5-HT2A F125^2.55L mutant; ref [106]): no effect
Effect on ketanserin binding affinity (5-HT2A F125^2.55S mutant): no effect
Effect on ketanserin binding affinity (5-HT2A M132^2.62L mutant): no effect
Effect on ketanserin binding affinity (5-HT2A T134^2.64A mutant): no effect
Effect on ketanserin binding affinity (5-HT2A W200^4.50A mutant): no effect
Effect on ketanserin binding affinity (5-HT2A W367^7.40L mutant): abolished; also recorded: no detectable binding

COc1cc(CC(C)N)c(OC)cc1O (stereo not shown) [Compound 2g]
Ki (5-HT2A sites): > 50 µM

NCC1c2ccccc2Cc2cc(Br)ccc21 (stereo not shown) [Compound 1b, 3-Bromo-9-aminomethyl-9,10-dihydroanthracene hydrochloride]
decrease in affinity at F340L mutant compared to wild type receptor [1]: no change in affinity

COc1cc(CC(C)N)c(OC)cc1I (stereo not shown) [DOI, 2,5-dimethoxy-4-iodoamphetamine]
effect of F340L mutation on affinity [2]: approximately 14,000 fold
